Reference: PubChem BioAssay AID248 (DTP/NCI, 2004)
Values joined by “and” are separate entries in the source; they are usually repeats but may differ in a detail not shown here. Equal values may be shown once. Inconclusive results and toxic doses are left out. No stated cut-off is given here; in the data, active means T/C of 150% or more; inactive means T/C below 125%.

System: L1210 leukemia ip in BDF1 mice, survival T/C
Experiment: NCI In Vivo Anticancer Drug Screen. Data for tumor model L1210 Leukemia (intraperitoneal) in B6D2F1 (BDF1) mice
Settings: endpoint: mean survival time, higher = longer survival
Summary of the method: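 Survival endpoint. Drug-treated group vs vehicle group, expressed as T divided by C. Tumor passaged by transplantation.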

[1] = dose: 100.0 mg/kg/injection, schedule: Q01DX001 (ip), vehicle: Klucel (hydroxypropylcellulose) (HPC)
[2] = dose: 100.0 mg/kg/injection, schedule: Q04DX003 (ip), vehicle: Klucel (hydroxypropylcellulose) (HPC)
[3] = dose: 200.0 mg/kg/injection, schedule: Q01DX001 (ip), vehicle: Klucel (hydroxypropylcellulose) (HPC)
[4] = dose: 200.0 mg/kg/injection, schedule: Q04DX003 (ip), vehicle: Klucel (hydroxypropylcellulose) (HPC)
[5] = dose: 400.0 mg/kg/injection, schedule: Q01DX001 (ip), vehicle: Klucel (hydroxypropylcellulose) (HPC)
[6] = dose: 400.0 mg/kg/injection, schedule: Q04DX003 (ip), vehicle: Klucel (hydroxypropylcellulose) (HPC)
[7] = dose: 100.0 mg/kg/injection, schedule: Q01DX001 (ip), vehicle: saline
[8] = dose: 200.0 mg/kg/injection, schedule: Q01DX001 (ip), vehicle: saline
[9] = dose: 400.0 mg/kg/injection, schedule: Q01DX001 (ip), vehicle: saline
[10] = dose: 200.0 mg/kg/injection, schedule: Q01DX009 (ip), vehicle: other
[11] = dose: 75.0 mg/kg/injection, schedule: Q04DX003 (ip), vehicle: Klucel (hydroxypropylcellulose) (HPC)
[12] = dose: 150.0 mg/kg/injection, schedule: Q04DX003 (ip), vehicle: Klucel (hydroxypropylcellulose) (HPC)
[13] = dose: 300.0 mg/kg/injection, schedule: Q04DX003 (ip), vehicle: Klucel (hydroxypropylcellulose) (HPC)

Measured: T/C

CC(=O)NC1CCC(CC(=O)O)CC1 (centres undefined)
inactive: [1] 94 % of control and 96 % of control | dose: 100.0 mg/kg/injection, schedule: Q01DX009 (ip), vehicle: Klucel (hydroxypropylcellulose) (HPC) 98 % of control | [2] 92 % of control | [3] 94 % of control and 102 % of control | dose: 200.0 mg/kg/injection, schedule: Q01DX009 (ip), vehicle: Klucel (hydroxypropylcellulose) (HPC) 87 % of control | [4] 99 % of control | [5] 91 % of control and 94 % of control | [6] 95 % of control

COc1ccc(C2C3CCC(C3)C2C(C)=O)cc1 (centres undefined)
inactive: dose: 100.0 mg/kg/injection, schedule: Q01DX001 (ip), vehicle: saline with Tween-80 101 % of control | dose: 200.0 mg/kg/injection, schedule: Q01DX001 (ip), vehicle: saline with Tween-80 90 % of control | dose: 400.0 mg/kg/injection, schedule: Q01DX001 (ip), vehicle: saline with Tween-80 92 % of control

Cc1ccc(CN(CC(=O)O)N=O)cc1
inactive: dose: 100.0 mg/kg/injection, schedule: Q01DX Z (ip), vehicle: saline 107 % of control | dose: 200.0 mg/kg/injection, schedule: Q01DX Z (ip), vehicle: saline 100 % of control

C=CCc1ccccc1C
inactive: [7] 106 % of control | [8] 102 % of control | [9] 101 % of control

COC(=O)N1C2CC=C(C)CC21 (centres undefined)
inactive: dose: 75.0 mg/kg/injection, schedule: Q01DX001 (ip), vehicle: saline 94 % of control | dose: 150.0 mg/kg/injection, schedule: Q01DX001 (ip), vehicle: saline 104 % of control | dose: 300.0 mg/kg/injection, schedule: Q01DX001 (ip), vehicle: saline 100 % of control

CC(C)(C)c1ccc(C(=O)C2CC2)cc1
inactive: dose: 50.0 mg/kg/injection, schedule: Q01DX009 (ip), vehicle: saline with Tween-80 90 % of control | dose: 100.0 mg/kg/injection, schedule: Q01DX009 (ip), vehicle: saline with Tween-80 92 % of control

Cc1ccc(NC(=O)N(CCO)N=O)cc1
inactive: dose: 12.5 mg/kg/injection, schedule: Q01DX001 (ip), vehicle: carboxymethylcellulose (CMC) 110 % of control | dose: 25.0 mg/kg/injection, schedule: Q01DX001 (ip), vehicle: carboxymethylcellulose (CMC) 105 % of control | dose: 50.0 mg/kg/injection, schedule: Q01DX001 (ip), vehicle: carboxymethylcellulose (CMC) 103 % of control and 108 % of control | dose: 100.0 mg/kg/injection, schedule: Q01DX001 (ip), vehicle: carboxymethylcellulose (CMC) 100 % of control

CC(=O)c1ccc2c(c1)N(CCCN1CCN(CCO)CC1)c1ccccc1S2
inactive: dose: 0.78 mg/kg/injection, schedule: Q01DX009 (ip), vehicle: saline 93 % of control and 120 % of control | dose: 1.5 mg/kg/injection, schedule: Q01DX009 (ip), vehicle: saline 106 % of control | dose: 1.56 mg/kg/injection, schedule: Q01DX009 (ip), vehicle: saline 105 % of control and 113 % of control | dose: 3.12 mg/kg/injection, schedule: Q01DX009 (ip), vehicle: Klucel (hydroxypropylcellulose) (HPC) 113 % of control | dose: 3.12 mg/kg/injection, schedule: Q01DX009 (ip), vehicle: saline 102 % of control and 104 % of control and 116 % of control | dose: 6.25 mg/kg/injection, schedule: Q01DX009 (ip), vehicle: saline 103 % of control and 104 % of control | dose: 6.25 mg/kg/injection, schedule: Q04DX003 (ip), vehicle: saline 98 % of control | dose: 12.5 mg/kg/injection, schedule: Q01DX009 (ip), vehicle: Klucel (hydroxypropylcellulose) (HPC) 96 % of control | dose: 12.5 mg/kg/injection, schedule: Q04DX003 (ip), vehicle: saline 115 % of control | dose: 25.0 mg/kg/injection, schedule: Q01DX009 (ip), vehicle: saline 98 % of control

NC(COC(c1ccccc1)(c1ccccc1)c1ccccc1)C(=O)O (centres undefined)
inactive: dose: 25.0 mg/kg/injection, schedule: Q01DX009 (ip), vehicle: other 100 % of control | [10] 98 % of control

O=S1(=O)CC2(N3CCCCC3)CCCCC21 (centres undefined)
inactive: dose: 5.0 mg/kg/injection, schedule: Q01DX009 (ip), vehicle: saline 94 % of control | dose: 10.0 mg/kg/injection, schedule: Q01DX009 (ip), vehicle: saline 96 % of control

CCOC(=O)CC(=O)OCC
inactive: [7] 93 % of control | [8] 93 % of control | [9] 90 % of control

O=[N+]([O-])c1ccc(OCc2cccc(Cl)c2S(=O)(=O)F)c(Cl)c1
inactive: dose: 100.0 mg/kg/injection, schedule: Q04DX003 (ip), vehicle: gum acacia 98 % of control | dose: 200.0 mg/kg/injection, schedule: Q04DX003 (ip), vehicle: gum acacia 104 % of control | dose: 400.0 mg/kg/injection, schedule: Q04DX003 (ip), vehicle: gum acacia 97 % of control

NC(=O)N/N=C1\CCCC(CCC(=O)O)C1 (centres undefined)
inactive: dose: 75.0 mg/kg/injection, schedule: Q01DX009 (ip), vehicle: other 101 % of control | [7] 89 % of control | dose: 150.0 mg/kg/injection, schedule: Q01DX009 (ip), vehicle: other 93 % of control | [8] 108 % of control | dose: 300.0 mg/kg/injection, schedule: Q01DX009 (ip), vehicle: other 94 % of control | [9] 100 % of control

O=C1NC(c2c(Cl)cccc2Cl)Nc2ccccc21 (centres undefined)
inactive: [2] 100 % of control | [4] 100 % of control | [6] 111 % of control

O=C(/C(Br)=C/c1ccccc1)c1ccccc1
inactive: dose: 50.0 mg/kg/injection, schedule: Q01DX009 (ip), vehicle: other 103 % of control | dose: 100.0 mg/kg/injection, schedule: Q01DX009 (ip), vehicle: other 105 % of control | [10] 100 % of control

Nc1ccccc1SCCC(=O)O
inactive: dose: 37.5 mg/kg/injection, schedule: Q04DX003 (ip), vehicle: Klucel (hydroxypropylcellulose) (HPC) 96 % of control | dose: 75.0 mg/kg/injection, schedule: Q01DX009 (ip), vehicle: saline with Tween-80 106 % of control | [11] 86 % of control | dose: 150.0 mg/kg/injection, schedule: Q01DX009 (ip), vehicle: saline with Tween-80 105 % of control | [12] 91 % of control | dose: 300.0 mg/kg/injection, schedule: Q01DX009 (ip), vehicle: saline with Tween-80 98 % of control | [13] 96 % of control

c1ccc(-c2c[nH]c(-c3ccccc3)c2-c2ccccc2)cc1
inactive: dose: 75.0 mg/kg/injection, schedule: Q01DX001 (ip), vehicle: carboxymethylcellulose (CMC) 93 % of control | dose: 150.0 mg/kg/injection, schedule: Q01DX001 (ip), vehicle: carboxymethylcellulose (CMC) 93 % of control | dose: 300.0 mg/kg/injection, schedule: Q01DX001 (ip), vehicle: carboxymethylcellulose (CMC) 93 % of control

NC(=O)N1OCC(N)C1=O (centres undefined)
inactive: dose: 100.0 mg/kg/injection, schedule: Q01DX009 (ip), vehicle: saline 101 % of control | dose: 100.0 mg/kg/injection, schedule: Q04DX003 (ip), vehicle: saline 108 % of control | dose: 200.0 mg/kg/injection, schedule: Q01DX009 (ip), vehicle: saline 87 % of control | dose: 200.0 mg/kg/injection, schedule: Q04DX003 (ip), vehicle: saline 98 % of control | dose: 400.0 mg/kg/injection, schedule: Q01DX009 (ip), vehicle: saline 95 % of control | dose: 400.0 mg/kg/injection, schedule: Q04DX003 (ip), vehicle: saline 97 % of control

CCCCCCCCCCCCCC(=O)CC(=O)OC
inactive: [11] 94 % of control | [1] 103 % of control | [12] 106 % of control | [3] 100 % of control | [13] 93 % of control | [5] 96 % of control
